# Values quoted from earlier work in article PMC11435065, “Inhibition of P-Glycoprotein Asymmetrically Alters the In Vivo Exposure Profile of SGC003F: A Novel Guanylate Cyclase Stimulator” (Pharmaceuticals, 2024).
# Parameters: method as in PMID 24398461
# Details: rats, one hour after administration, with 1.0 mg/kg tariquidar; cited from earlier work
structure (smiles),measurement,value
CN(C)C(=O)C(CCN1CCC(O)(c2ccc(Cl)cc2)CC1)(c1ccccc1)c1ccccc1 [loperamide],Increase of loperamide levels in the brain,2.3 fold
